Columns and labels:
[1] = tested on: MCF10A cells (normal human mammary cells); assay: Cell viability assay (MTT) in MCF10A cells; format: cell-based; details: MCF-10A, 72 h
Description: MCF10A cells are maintained in minimum essential medium (MEM) (Invitrogen 11095) supplemented with 10% FBS (Invitrogen 16000), 1% 10× non-essential amino acids (NEAA) (Invitrogen 11140), 1% Penicillin/Streptomycin (Invitrogen 15140), 1% GlutaMAX (Invitrogen 35050-061), 20 ng/mL EGF, […] hydrocortisone, 100 ng/mL cholera toxin, 10 μg/mL insulin.
Cells were plated in 96-well plates at 25×10^4 cells/ml. After 24 hours, compounds were added at 9, 3× dilutions in triplicate from 100 uM final concentration in the appropriate growth media. Plates were incubated for 72 hours at 37° C. in a 5% CO2/95% air humidified atmosphere after which time the media was removed and MTT was added in RPMI phenol red free media. The MTT was removed after 3 hours and formazan crystals were solubilized with 200 μL of isopropanol. Plates were read on a Molecular Devices SpectraMax i3 spectrophotometer at 570 nm for formazan and 690 nm for background subtraction. EC50 values were calculated by fitting the data in GraphPad Prism software.

[2] = Microsomal stability assay, mouse liver microsomes; format: in vitro ADME; details: pH 7.4; mouse liver microsomes 0.5 mg/mL, 1 mM NADPH, 1 μM compound; read-out: Microsomal Stability t1/2 Mouse
Description: (§1) The in vitro microsomal stability assay was conducted in triplicate in mouse and human liver microsomal systems. In a typical incubation, a compound (typically 1 μM final concentration) was spiked into the reaction mixture containing 0.5 mg/mL of liver microsomal protein and 1 mM of NADPH in 0.1 M potassium phosphate buffer (pH 7.4) at 37° C. At various time points, 1 volume of reaction aliquot was taken and quenched with 3 volumes of acetonitrile with an appropriate internal standard. The samples were then vortexed and centrifuged at 14,000 rpm for 5 min. The supernatants were collected and analyzed by LC-MS/MS to determine the in vitro metabolic half-life (t1/2) and intrinsic clearance (CLint). Verapamil was used as a positive control.
(§2) Quantification and analysis of compounds in biological samples were carried out on an AB Sciex QTrap 5500 mass spectrometer coupled with an Agilent 1260 Infinity HPLC. The chromatographic separation of compounds was achieved using a Phenomenex Kinetex C18 column (50×2.1 mm, 2.6 μm), and MS/MS analysis was conducted using an ESI ion source with MRM detection. The MS/MS detection parameters including declustering potential (DP), entrance potential (EP), collision energy (CE), and collision cell exit potential (CXP) were optimized for each compound.

[3] = Caco-2 permeability assay; format: in vitro ADME; details: human, pH 7.4
Description: Cell Culture. The human colon adenocarcinoma cell line Caco-2 was purchased from ATCC (American Type Culture Collection, Manassas, Va.), and was cultured in a humidified atmosphere of 5% CO2 at 37° C. Caco-2 cells were cultured in DMEM with 10% FBS, 1% NEAA, 1% GlutaMax and 1% penicillin and streptomycin solution. The culture medium was changed every other day during cell growth and differentiation. On achieving 80-90% confluence, the cells were rinsed with pre-warm DPBS (pH 7.4) and split using trypsin. The cells were then seeded on membranes of Millipore Millicell-24 cell culture device. The transepithelial electrical resistance (TEER) were assessed to reflect membrane integrity using a Millicells® ERS-2 (Millipore, USA). The Caco-2 cell monolayers were used for transport experiments on day 21 post-seeding with TEER values >500 Ω·cm2. Bidirectional Transport Experiments. Before the transport experiments, the cell monolayer was washed three times with HBSS. Then, the plates were incubated in fresh permeability assay buffer (HBSS containing 10 mM glucose and 20 mM HEPES, pH 7.4) at 37° C. The experiments were conducted by spiking test compounds to either the apical (AP, 0.4 mL) or basolateral side (BL, 0.8 mL), while the receiving chamber contained the corresponding volume of pre-warmed permeability assay buffer. Every experiment was repeated in duplicate, and the plates were incubated in an orbital shaker at 37° C., 50 rpm/min. To assess the drug transport, at the incubation time of 20, 40, 60 and 80 min, aliquot was removed and was immediately replenished with an equal volume of permeability assay buffer. The samples were then subjected to LC/MS/MS analysis. The apparent permeability coefficient was indicated by the absorption rate constant Papp. It could be calculated as PBA (measured in BL to AP direction) or PAB (measured in AP to BL direction), using the equation of Papp=(dQ/dt)/(A×C0). dQ/dt is the rate at which the compound appears in the receiver chamber (nmol/s), A is the surface area of the filter membrane (0.7 cm2) and C0 is the initial concentration in the donor chamber (μM). Efflux ratio (ER) was calculated by the equation of ER=PBA/PAB, where PBA is the Papp value measured in BL to AP direction, and PAB is the Papp value measured in AP to BL direction.

[4] = Plasma stability assay, human plasma; format: in vitro ADME; details: 37° C.
Description: The plasma stability assay was performed in triplicate by incubating a compound in normal mouse and human plasma at 37° C. At 0, 1, 3, 6, and 24 h, aliquots of the plasma mixture were taken and quenched with 3 volumes of acetonitrile containing an appropriate internal standard. The samples were then vortexed and centrifuged at 14,000 rpm for 5 min. The supernatants were collected and analyzed by LC-MS/MS to determine the remaining percentage at various time points.
as §2

[5] = tested on: Panc-1 cells; assay: Cell viability assay (MTT) in Panc-1 cells; format: cell-based; details: Homo sapiens, antiproliferative activity, 72 h
How it was run: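 After 24 h plating, Panc-1 cells were exposed for 72 h at 37 °C to compound in a nine-point 3-fold series from 100 uM final, in triplicate. Viability read by MTT reduction (570 nm, 690 nm background); EC50 fitted from the curves.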

[6] = Microsomal stability assay, human liver microsomes; format: in vitro ADME; details: pH 7.4; human liver microsomes 0.5 mg/mL, 1 mM NADPH, 1 μM compound; read-out: Microsomal Stability t1/2 Human
Description: as §1, §2

With CNC(=O)c1cccc(Cn2nc(C)c(NC(=O)c3ccc(COc4ccc(C(F)(F)F)cc4)cc3)c2C)c1 [Compound D9c, 3-((3,5-Dimethyl-4-(4-((4-(trifluoromethyl)phenoxy)-methyl)benzamido)-1H-pyrazol-1-yl)methyl)-N-methylbenzamide] the EC50 [1] was 6.7 µM, the half-life at 1 μM [2] was 60 min and the Papp A→B at 80 min ([3]; apical to basolateral) was 8.26 ×10⁻⁶ cm/s. For the same compound, the Papp B→A at 80 min ([3]; basolateral to apical) was 19.3 ×10⁻⁶ cm/s, the “Plasma Stability (% remaining, 6 h/24 h) Human” value ([4]; 6 h) was 99% and the “Plasma Stability (% remaining, 6 h/24 h) Human” value ([4]; 24 h) was 100%. For the same compound, the EC50 [5] was 0.21 µM and the half-life at 1 μM [6] was 34 min.

From patent US10357477B2, “Anticancer compounds” (REGENTS OF THE UNIVERSITY OF MINNESOTA, priority 2016, dated 2019)
